Measured values from PubChem BioAssay AID330 (DTP/NCI, 2004).
Where “and” joins values, the source holds several entries; their conditions need not be identical. Equal entries are not always repeated. Toxic doses and inconclusive results are not listed. How the source made its calls: active means survival T/C of 150% or more; inactive means T/C below 125% in these data.

System: P388 leukemia ip, CD2F1 mice, survival T/C
Test: NCI In Vivo Anticancer Drug Screen. Data for tumor model P388 Leukemia (intraperitoneal) in CD2F1 (CDF1) mice
Conditions: endpoint: median survival time, higher = longer survival
Summary of the method: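 Mice carrying the transplanted tumor received test compound or vehicle. Survival was recorded in each group, and the value is the treated-group measurement divided by that of the vehicle-treated control group.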

Measured: T/C

CN(C=O)c1cc2c3c(c1)CCCN3CCC2
inactive: dose: 12.5 mg/kg/injection, schedule: Q01DX009 (ip), vehicle: saline with Tween-80 109 % of control | dose: 12.5 mg/kg/injection, schedule: Q04DX003 (ip), vehicle: saline with Tween-80 100 % of control | dose: 25.0 mg/kg/injection, schedule: Q01DX009 (ip), vehicle: saline with Tween-80 104 % of control | dose: 25.0 mg/kg/injection, schedule: Q04DX003 (ip), vehicle: saline with Tween-80 90 % of control | dose: 50.0 mg/kg/injection, schedule: Q01DX009 (ip), vehicle: saline with Tween-80 109 % of control | dose: 50.0 mg/kg/injection, schedule: Q04DX003 (ip), vehicle: saline with Tween-80 95 % of control

CCOC(=O)C(NC(C)=O)(C(=O)OCC)C(C)C(O)c1ccc(OC)c(OC)c1O (stereo unspecified)
inactive: dose: 50.0 mg/kg/injection, schedule: Q01DX009 (ip), vehicle: Klucel (hydroxypropylcellulose) (HPC) 108 % of control | dose: 100.0 mg/kg/injection, schedule: Q01DX009 (ip), vehicle: Klucel (hydroxypropylcellulose) (HPC) 103 % of control | dose: 200.0 mg/kg/injection, schedule: Q01DX009 (ip), vehicle: Klucel (hydroxypropylcellulose) (HPC) 109 % of control | dose: 400.0 mg/kg/injection, schedule: Q01DX009 (ip), vehicle: Klucel (hydroxypropylcellulose) (HPC) 93 % of control

NCCCC(NN)C(=O)O (stereo unspecified)
inactive: dose: 3.3 mg/kg/injection, schedule: Q01DX009 (ip), vehicle: saline 101 % of control and 90 % of control | dose: 6.6 mg/kg/injection, schedule: Q01DX009 (ip), vehicle: saline 100 % of control and 95 % of control | dose: 7.5 mg/kg/injection, schedule: Q01DX009 (ip), vehicle: saline 100 % of control | dose: 10.0 mg/kg/injection, schedule: Q01DX009 (ip), vehicle: saline 99 % of control and 97 % of control | dose: 15.0 mg/kg/injection, schedule: Q01DX009 (ip), vehicle: saline 109 % of control and 93 % of control | dose: 22.5 mg/kg/injection, schedule: Q01DX009 (ip), vehicle: saline 102 % of control and 110 % of control | dose: 30.0 mg/kg/injection, schedule: Q01DX009 (ip), vehicle: saline 103 % of control

Cn1c(=O)[nH]c(Cl)c(NC=O)c1=O
inactive: dose: 25.0 mg/kg/injection, schedule: Q01DX005 (ip), vehicle: water 98 % of control | dose: 50.0 mg/kg/injection, schedule: Q01DX005 (ip), vehicle: water 103 % of control | dose: 100.0 mg/kg/injection, schedule: Q01DX005 (ip), vehicle: water 98 % of control | dose: 200.0 mg/kg/injection, schedule: Q01DX005 (ip), vehicle: water 109 % of control

CCCCCCC(=O)CC(SCC(NC(C)=O)C(=O)O)c1ccccc1Cl (stereo unspecified)
inactive: dose: 60.0 mg/kg/injection, schedule: Q01DX005 (ip), vehicle: saline 101 % of control | dose: 120.0 mg/kg/injection, schedule: Q01DX005 (ip), vehicle: saline 93 % of control

O=C(CCl)N1CCN(c2ccccn2)CC1
inactive: dose: 60.0 mg/kg/injection, schedule: Q01DX005 (ip), vehicle: saline with Tween-80 109 % of control | dose: 120.0 mg/kg/injection, schedule: Q01DX005 (ip), vehicle: saline with Tween-80 110 % of control | dose: 240.0 mg/kg/injection, schedule: Q01DX005 (ip), vehicle: saline with Tween-80 116 % of control
